In article PMC3858179 (Journal of medicinal chemistry, 2008):

What was measured:
[1] = biological target: human TS (Homo sapiens, UniProt P04818); assay: Inhibition of isolated human TS; assay type: biochemical
[2] = tested on: SF268; assay: NCI tumor cell growth inhibition, SF268; assay type: cell-based; details: Homo sapiens, SF-268, read-out: GI50 SF268
[3] = biological target: T1, T. gondii DHFR (Toxoplasma gondii, UniProt Q07422); assay type: biochemical; details: 20 compounds jointly assayed, by both protocols (Table 1 and Table 2 conditions)
T1 sequence (Q07422 1-610): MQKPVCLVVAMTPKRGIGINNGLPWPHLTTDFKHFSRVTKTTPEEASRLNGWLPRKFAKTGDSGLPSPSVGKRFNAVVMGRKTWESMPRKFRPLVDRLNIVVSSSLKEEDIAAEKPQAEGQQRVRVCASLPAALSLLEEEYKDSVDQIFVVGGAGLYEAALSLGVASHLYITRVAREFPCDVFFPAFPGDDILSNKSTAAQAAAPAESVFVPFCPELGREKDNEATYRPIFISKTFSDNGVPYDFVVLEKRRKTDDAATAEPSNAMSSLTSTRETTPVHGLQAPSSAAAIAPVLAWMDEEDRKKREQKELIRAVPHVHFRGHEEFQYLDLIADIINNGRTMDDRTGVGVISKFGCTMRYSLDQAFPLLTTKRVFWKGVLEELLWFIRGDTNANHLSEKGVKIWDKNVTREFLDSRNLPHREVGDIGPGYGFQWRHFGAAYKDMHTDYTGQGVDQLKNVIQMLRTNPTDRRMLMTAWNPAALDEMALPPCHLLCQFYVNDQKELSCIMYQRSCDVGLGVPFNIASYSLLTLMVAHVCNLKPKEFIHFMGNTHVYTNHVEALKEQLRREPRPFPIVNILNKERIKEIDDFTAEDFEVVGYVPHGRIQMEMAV

[4] = biological target: P. carinii DHFR (Pneumocystis carinii, UniProt P16184); assay: biochemical
P. carinii DHFR, sequence (P16184 whole entry): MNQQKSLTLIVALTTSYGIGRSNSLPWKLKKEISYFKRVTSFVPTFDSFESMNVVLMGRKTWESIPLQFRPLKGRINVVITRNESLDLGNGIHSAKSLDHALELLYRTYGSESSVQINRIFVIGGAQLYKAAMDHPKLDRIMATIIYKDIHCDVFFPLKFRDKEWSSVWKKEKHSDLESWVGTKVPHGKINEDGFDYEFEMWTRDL

[5] = tested on: CAKI-1; assay: NCI tumor cell growth inhibition, CAKI-1; assay type: cell-based; details: Homo sapiens, CAKI-1, read-out: GI50 CAKI-1
[6] = tested on: NCI-H460; assay: NCI tumor cell growth inhibition, NCI-H460; assay type: cell-based; details: Homo sapiens, NCI-H460, read-out: GI50 NCI-H460
[7] = tested on: HCT 15; assay: NCI tumor cell growth inhibition, HCT 15; assay type: cell-based; details: Homo sapiens, HCT-15, read-out: GI50 HCT 15
[8] = tested on: U251; assay: NCI tumor cell growth inhibition, U251; assay type: cell-based; details: Homo sapiens, U-251, read-out: GI50 U251
[9] = tested on: 60 tumor cell lines; assay: NCI in vitro preclinical antitumor screening, 60 tumor cell lines; assay type: cell-based
[10] = biological target: M. avium DHFR (Mycobacterium avium, UniProt O30463); assay: Inhibition of isolated M. avium DHFR; assay type: biochemical
M. avium DHFR, sequence (O30463 1-181): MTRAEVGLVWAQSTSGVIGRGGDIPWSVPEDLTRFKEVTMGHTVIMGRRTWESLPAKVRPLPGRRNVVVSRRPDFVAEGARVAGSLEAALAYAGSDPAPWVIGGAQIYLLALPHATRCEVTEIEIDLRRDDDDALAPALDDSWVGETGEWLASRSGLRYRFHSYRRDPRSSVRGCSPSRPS

[11] = biological target: rat liver DHFR (Rattus norvegicus, UniProt Q920D2); assay: Inhibition of isolated rat liver DHFR; assay type: biochemical
rat liver DHFR, sequence (Q920D2 whole entry): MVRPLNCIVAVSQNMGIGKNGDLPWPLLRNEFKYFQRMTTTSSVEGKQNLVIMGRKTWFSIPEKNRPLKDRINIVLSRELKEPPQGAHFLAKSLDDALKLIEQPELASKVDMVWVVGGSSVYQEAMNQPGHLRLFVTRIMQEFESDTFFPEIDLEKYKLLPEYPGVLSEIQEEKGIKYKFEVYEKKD

[12] = tested on: ACHN; assay: NCI tumor cell growth inhibition, ACHN; assay type: cell-based; details: Homo sapiens, read-out: GI50 ACHN
[13] = tested on: SW-620; assay: NCI tumor cell growth inhibition, SW-620; assay type: cell-based; details: Homo sapiens, SW-620, read-out: GI50 SW-620
[14] = tested on: K-562; assay: NCI tumor cell growth inhibition, K-562; assay type: cell-based; details: Homo sapiens, K562, read-out: GI50 K-562
[15] = tested on: HL-60 × (TB); assay: NCI tumor cell growth inhibition, HL-60 ×; assay type: cell-based; details: Homo sapiens, HL-60, read-out: GI50 HL-60 × (TB)
[16] = tested on: LOX IMVI; assay: NCI tumor cell growth inhibition, LOX IMVI; assay type: cell-based; details: Homo sapiens, read-out: GI50 LOX IMVI
[17] = tested on: HT29; assay: NCI tumor cell growth inhibition, HT29; assay type: cell-based; details: Homo sapiens, HT-29, read-out: GI50 HT29
[18] = tested on: MOLT-4; assay: NCI tumor cell growth inhibition, MOLT-4; assay type: cell-based; details: Homo sapiens, MOLT-4, read-out: GI50 MOLT-4
[19] = biological target: T2, human DHFR (Homo sapiens, UniProt P00374); assay: Inhibition of isolated human DHFR; assay type: biochemical
T2 sequence (P00374 1-187): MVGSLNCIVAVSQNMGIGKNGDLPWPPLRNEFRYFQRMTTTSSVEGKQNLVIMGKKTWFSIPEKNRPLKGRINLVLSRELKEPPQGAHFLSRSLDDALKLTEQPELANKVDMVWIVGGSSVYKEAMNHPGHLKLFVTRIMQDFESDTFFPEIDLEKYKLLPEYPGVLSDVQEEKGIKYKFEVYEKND

[20] = tested on: RPMI-8226; assay: NCI tumor cell growth inhibition, RPMI-8226; assay type: cell-based; details: Homo sapiens, RPMI-8226, read-out: GI50 RPMI-8226
[21] = tested on: CCRF-CEM; assay: NCI tumor cell growth inhibition, CCRF-CEM; assay type: cell-based; details: Homo sapiens, read-out: GI50 CCRF-CEM

human TS, sequence (P04818 whole entry): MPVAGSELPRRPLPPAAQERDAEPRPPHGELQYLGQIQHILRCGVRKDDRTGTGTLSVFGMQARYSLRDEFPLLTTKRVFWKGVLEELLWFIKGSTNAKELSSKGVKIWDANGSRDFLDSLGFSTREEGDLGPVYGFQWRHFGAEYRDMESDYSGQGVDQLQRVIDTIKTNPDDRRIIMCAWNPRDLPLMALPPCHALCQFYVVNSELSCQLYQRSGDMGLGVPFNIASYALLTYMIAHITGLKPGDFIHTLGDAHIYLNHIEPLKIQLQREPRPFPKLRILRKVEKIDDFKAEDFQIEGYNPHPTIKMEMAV

CC(C)c1c(Sc2ccc(C(=O)N[C@@H](CCC(=O)O)C(=O)O)cc2)[nH]c2nc(N)nc(N)c12 [Compound 4, N-[4-[(2,4-Diamino-5-isopropyl-7H-pyrrolo[2,3-d]pyrimidin-6-yl)sulfanyl]-benzoyl]-L-glutamate]
fold less inhibitory than pemetrexed against hTS [1]: 4 fold | fold less potent than 1 as inhibitor of hTS [1]: 63-74 fold | GI50 [2]: 17.8 µM | potency rank against T. gondii DHFR, in words [3]: three most potent compounds | IC50 [4]: 0.0048 µM | Selectivity ratio rl/pc ([4]; IC50 rat liver DHFR/IC50 P. carinii DHFR): 38.8 | GI50 [5]: 4.25 µM | GI50 [6]: 6.45 µM | GI50 [7]: 34.8 µM | GI50 [8]: 7.24 µM | GI50 [9]: < 1 µM | IC50 [10]: 0.000391 µM | Selectivity ratio rl/ma ([10]; IC50 rat liver DHFR/IC50 M. avium DHFR): 475.7 | IC50 [11]: 0.186 µM | GI50 [12]: 7.39 µM | GI50 [13]: 4.71 µM | GI50 [14]: 0.932 µM | GI50 [15]: 5.65 µM | GI50 [16]: 1.14 µM | GI50 [17]: 5.76 µM | GI50 [18]: 1.31 µM | IC50 [19]: 0.09 µM | fold less potent as hDHFR inhibitor compared with MTX [19]: ~4 fold | fold more potent than pemetrexed as hDHFR inhibitor [19]: ~17 fold | inhibition of hDHFR, in words [19]: good inhibitors | GI50 [20]: 7.74 µM | GI50 [21]: 0.536 µM
